Counter-ions that a name gives are not always drawn.
How the values were obtained:
[1] = biological target: cloned human P2Y1 receptors (Homo sapiens (Human), UniProt P47900); assay: Binding Assay B - Scintillation Proximity Assay (SPA) for P2Y1 binding, [33P] 2MeS-ADP; conditions: SPA, 0.3 nM [33P] 2MeS-ADP, Cheng-Prusoff; read-out: P2Y1 Ki (nM) using binding assay B
Experimental: Binding Assay B—Scintillation Proximity Assay (SPA) for P2Y1 Binding
A SPA membrane binding assay was used to identify inhibitors of [^33P] […] Reactions were allowed to proceed to completion at room temperature for 1 hour followed by centrifugation of the plate for 5 min. About 40 μL of the aqueous solution was aspirated. Plates were sealed and the [^33P]

[2] = test system: human platelet rich plasma (PRP); assay: ADP induced platelet aggregation assay; conditions: Homo sapiens, Platelet, 5 min, read-out: PA IC50 (μM) @ 10 μM ADP, human PRP, 10 μM ADP, AUC at 5 minute

Sequence of cloned human P2Y1 receptors (P47900 whole entry): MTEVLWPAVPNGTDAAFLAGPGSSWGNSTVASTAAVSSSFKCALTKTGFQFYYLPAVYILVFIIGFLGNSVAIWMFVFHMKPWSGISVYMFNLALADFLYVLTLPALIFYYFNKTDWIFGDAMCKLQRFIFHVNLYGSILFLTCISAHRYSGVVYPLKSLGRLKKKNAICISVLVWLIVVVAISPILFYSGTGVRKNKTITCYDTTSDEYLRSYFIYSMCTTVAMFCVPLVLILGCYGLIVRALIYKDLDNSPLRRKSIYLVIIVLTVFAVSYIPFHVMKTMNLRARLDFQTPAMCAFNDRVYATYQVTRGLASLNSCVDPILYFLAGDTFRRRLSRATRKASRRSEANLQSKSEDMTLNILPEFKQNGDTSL

Structure (SMILES)	Ki [1] [nM]	IC50 [2] [µM]
CC1(C)CN(c2ccccc2NC(=O)Nc2nc3ccc(F)cc3s2)c2c(O)cc(F)c(-c3nc4ccc(F)cc4s3)c21 [Example 146, 1-(2-(5-Fluoro-4-(6-fluorobenzo[d]thiazol-2-yl)-7-hydroxy-3,3-dimethylindolin-1-yl)phenyl)-3-(6-fluorobenzo[d]thiazol-2-yl)urea]	47.2	0.3
CC1(C)CN(c2ccccc2NC(=O)Nc2nc3ccc(F)nc3s2)c2c(O)cc(F)c(-c3nc4cc(Cl)ccc4s3)c21 [Example 157, 1-(2-(4-(5-Chlorobenzo[d]thiazol-2-yl)-5-fluoro-7-hydroxy-3,3-dimethylindolin-1-yl)phenyl)-3-(5-fluorothiazolo[5,4-b]pyridin-2-yl)urea]	18.7	0.28
CCC1(CC)CN(c2ccccc2NC(=O)Nc2ccc(OC(F)(F)F)cc2)c2c(O)ccc(C(F)(F)F)c21 [Example 24, 1-(2-(3,3-Diethyl-7-hydroxy-4-(trifluoromethyl)indolin-1-yl)phenyl)-3-(4-(trifluoromethoxy)phenyl)urea]	7.6	0.22
CCC1(CC)CN(c2ccccc2NC(=O)Nc2ccc(OC(F)(F)F)cc2)c2c(O)cc(F)cc21 [Example 5, 1-(2-(3,3-Diethyl-5-fluoro-7-hydroxyindolin-1-yl)phenyl)-3-(4-(trifluoromethoxy)phenyl)urea]	16	1.05
CC1(C)CN(c2ccccc2NC(=O)Nc2nc3ccc(F)nc3s2)c2c(O)cc(F)c(-c3nc4ccc(F)cc4s3)c21 [Example 178, 1-(2-(5-Fluoro-4-(6-fluorobenzo[d]thiazol-2-yl)-7-hydroxy-3,3-dimethylindolin-1-yl)phenyl)-3-(5-fluorothiazolo[5,4-b]pyridin-2-yl)urea]	17.9	0.74
CC1(C)CN(c2ccccc2NC(=O)Nc2ccc(OC(F)(F)F)cc2)c2c(O)cc(F)c(-c3cc(F)nc(F)c3)c21 [Example 161, 1-(2-(4-(2,6-Difluoropyridin-4-yl)-5-fluoro-7-hydroxy-3,3-dimethylindolin-1-yl)phenyl)-3-(4-(trifluoromethoxy)phenyl)urea]	6.6	0.16
CC(C)(C)CN1CCc2nc(NC(=O)Nc3ccccc3N3CC(C)(C)c4c(C(F)(F)F)ccc(O)c43)sc2C1 [Example 22, 1-(2-(7-Hydroxy-3,3-dimethyl-4-(trifluoromethyl)indolin-1-yl)phenyl)-3-(5-neopentyl-4,5,6,7-tetrahydrothiazolo[5,4-c]pyridin-2-yl)urea]	8	0.21
CC1(C)CN(c2ccccc2NC(=O)Nc2ccc(OC(F)(F)F)cc2)c2c(O)ccc(-c3nc4cccnc4o3)c21 [Example 89, 1-(2-(7-Hydroxy-3,3-dimethyl-4-(oxazolo[5,4-b]pyridin-2-yl)indolin-1-yl)phenyl)-3-(4-(trifluoromethoxy)phenyl)urea]	12.3	0.99
CCC1(CC)CN(c2ccccc2NC(=O)Nc2ccc(C(C)(C)C)cc2)c2c(O)ccc(F)c21 [Example 26, 1-(4-tert-Butylphenyl)-3-(2-(3,3-diethyl-4-fluoro-7-hydroxyindolin-1-yl)phenyl)urea]	5.1	0.98
CC1(C)CN(c2ccccc2NC(=O)Nc2csc(Cl)n2)c2c(O)cc(F)c(Br)c21 [Example 68, 1-(2-(4-Bromo-5-fluoro-7-hydroxy-3,3-dimethylindolin-1-yl)phenyl)-3-(2-chlorothiazol-4-yl)urea]	7.5	0.6
Cc1nc(-c2c(F)cc(O)c3c2C(C)(C)CN3c2ccccc2NC(=O)Nc2ccc(OC(F)(F)F)cc2)co1 [Example 274, 1-(2-(5-Fluoro-7-hydroxy-3,3-dimethyl-4-(2-methyloxazol-4-yl)indolin-1-yl)phenyl)-3-(4-(trifluoromethoxy)phenyl)urea]	7.4	3.39
CC1(C)CN(c2ccc(F)cc2NC(=O)Nc2ccc(F)cc2F)c2c(O)ccc(C(F)(F)F)c21 [Example 60, 1-(2,4-Difluorophenyl)-3-(5-fluoro-2-(7-hydroxy-3,3-dimethyl-4-(trifluoromethyl)indolin-1-yl)phenyl)urea]	10.6	0.62
CC1(C)CN(c2ccccc2NC(=O)Nc2ccc(OC(F)(F)F)cc2)c2c(O)ccc(-c3nc4cc(Cl)ccc4s3)c21 [Example 85, 1-(2-(4-(5-Chlorobenzo[d]thiazol-2-yl)-7-hydroxy-3,3-dimethylindolin-1-yl)phenyl)-3-(4-(trifluoromethoxy)phenyl)urea]	23.5	0.38
CC1(C)CN(c2ccccc2NC(=O)Nc2ccc(OC(F)(F)F)cc2)c2c(O)ccc(-c3nc4ccccc4o3)c21 [Example 82, 1-(2-(4-(Benzo[d]oxazol-2-yl)-7-hydroxy-3,3-dimethylindolin-1-yl)phenyl)-3-(4-(trifluoromethoxy)phenyl)urea]	15.8	0.99
CC1(C)CN(c2ccccc2NC(=O)Nc2ccc(OC(F)(F)F)cc2)c2ccccc21 [Comparator 2, reference compound]	8.7	> 20
CC1(C)CN(c2cc(F)ccc2NC(=O)Nc2nc3ccc(F)cc3s2)c2c(O)ccc(C(F)(F)F)c21 [Example 64, 1-(4-Fluoro-2-(7-hydroxy-3,3-dimethyl-4-(trifluoromethyl)indolin-1-yl)phenyl)-3-(6-fluorobenzo[d]thiazol-2-yl)urea]	13	0.21
CC(C)(C)c1nc(-c2c(F)cc(O)c3c2C(C)(C)CN3c2ccccc2NC(=O)Nc2nc3ccc(F)cc3s2)co1 [Example 254, 1-(2-(4-(2-tert-Butyloxazol-4-yl)-5-fluoro-7-hydroxy-3,3-dimethylindolin-1-yl)phenyl)-3-(6-fluorobenzo[d]thiazol-2-yl)urea]	13.7	0.87
CC1(C)CN(c2ccccc2NC(=O)Nc2ccc(OC(F)(F)F)cc2)c2c(O)ccc(-c3ccnc(F)c3)c21 [Example 112, 1-(2-(4-(2-Fluoropyridin-4-yl)-7-hydroxy-3,3-dimethylindolin-1-yl)phenyl)-3-(4-(trifluoromethoxy)phenyl) urea]	9	0.43
CC1(C)CN(c2ccccc2NC(=O)Nc2csc(C(F)(F)F)n2)c2c(O)ccc(-c3ccc(F)cc3)c21 [Example 208, 1-(2-(4-(4-Fluorophenyl)-7-hydroxy-3,3-dimethylindolin-1-yl)phenyl)-3-(2-(trifluoromethyl)thiazol-4-yl)urea]	11.4	0.25
CC1(C)CN(c2ccccc2NC(=O)Nc2nc3ccc(F)cc3s2)c2c(O)ccc(C(F)(F)F)c21 [Example 18, 1-(6-Fluorobenzo[d]thiazol-2-yl)-3-(2-(7-hydroxy-3,3-dimethyl-4-(trifluoromethyl)indolin-1-yl)phenyl)urea]	12.4	0.17
CC(C)n1nc(-c2c(F)cc(O)c3c2C(C)(C)CN3c2ccccc2NC(=O)Nc2nc3ccc(F)cc3s2)cc1C(F)(F)F [Example 253, 1-(2-(5-Fluoro-7-hydroxy-4-(1-isopropyl-5-(trifluoromethyl)-1H-pyrazol-3-yl)-3,3-dimethylindolin-1-yl)phenyl)-3-(6-fluorobenzo[d]thiazol-2-yl)urea]	33.4	0.12
CC(C)CN1CCc2nc(NC(=O)Nc3ccccc3N3CC(C)(C)c4c(C(F)(F)F)ccc(O)c43)sc2C1 [Example 21, 1-(2-(7-Hydroxy-3,3-dimethyl-4-(trifluoromethyl)indolin-1-yl)phenyl)-3-(5-isobutyl-4,5,6,7-tetrahydrothiazolo[5,4-c]pyridin-2-yl)urea]	7.9	0.07
CC(C)CN1CCCC1c1ccc(NC(=O)Nc2ccccc2N2CC(C)(C)c3cccc(O)c32)cc1 (centres unmarked) [Example 11, 1-(2-(7-Hydroxy-3,3-dimethylindolin-1-yl)phenyl)-3-(4-(1-isobutylpyrrolidin-2-yl)phenyl)urea]	36.8	1.08
CC1(C)CN(c2ccccc2NC(=O)Nc2ccc(OC(F)(F)F)cc2)c2c(O)ccc(-c3ccc(C(F)(F)F)nc3)c21 [Example 120, 1-(2-(7-Hydroxy-3,3-dimethyl-4-(6-(trifluoromethyl)pyridin-3-yl)indolin-1-yl)phenyl)-3-(4-(trifluoromethoxy)phenyl)urea,TFA]	7.9	0.14
CC(C)CCn1cc(-c2c(F)cc(O)c3c2C(C)(C)CN3c2ccccc2NC(=O)Nc2ccc(OC(F)(F)F)cc2)cn1 [Example 185, 1-(2-(5-Fluoro-7-hydroxy-4-(1-isopentyl-1H-pyrazol-4-yl)-3,3-dimethylindolin-1-yl)phenyl)-3-(4-(trifluoromethoxy)phenyl)urea]	13.3	0.16
CC(C)(C)c1ccc(-c2c(F)cc(O)c3c2C(C)(C)CN3c2ccccc2NC(=O)Nc2csc(Cl)n2)cc1 [Example 242, 1-(2-(4-(4-(tert-Butyl)phenyl)-5-fluoro-7-hydroxy-3,3-dimethylindolin-1-yl)phenyl)-3-(2-chlorothiazol-4-yl)urea]	12.6	0.06
Cc1cc(-c2c(F)cc(O)c3c2C(C)(C)CN3c2ccccc2NC(=O)Nc2ccc(OC(F)(F)F)cc2)ccc1F [Example 245, 1-(2-(5-Fluoro-4-(4-fluoro-3-methylphenyl)-7-hydroxy-3,3-dimethylindolin-1-yl)phenyl)-3-(4-(trifluoromethoxy)phenyl)urea]	11.4	0.19
CC1(C)CN(c2ccccc2NC(=O)Nc2ccc(OC(F)(F)F)cc2)c2c(O)cc(F)c(-c3cccc(C#N)c3)c21 [Example 247, 1-(2-(4-(3-Cyanophenyl)-5-fluoro-7-hydroxy-3,3-dimethylindolin-1-yl)phenyl)-3-(4-(trifluoromethoxy)phenyl)urea]	10	0.87

Source: US9540323B2 (BRISTOL-MYERS SQUIBB COMPANY, priority 2012, dated 2017)
